Values after ≈ are worked out from the molar mass of the structure shown. Values joined by “and” are separate entries in the source; they are usually repeats but may differ in a detail not shown here. Equal entries are not always repeated. Where two headings read alike, the source gives them in different places.
Assays:
[1] = DPPH free radicals scavenging assay; details: for Percent inhibition (mean ± SEM), DPPH free radicals scavenging: n = 3; for IC50 (DPPH free radicals scavenging): from 250-1000 μg/mL tested concentrations
Protocol: The compounds’ free radical scavenging ability was evaluated using 1,1-diphenyl, 2-picrylhydrazyl (DPPH) free radicals. Different dilutions (250, 500 and 1000 μg/mL) of compounds (0.1 mL) were added to 0.004 % methanolic solution of DPPH. After 30 min the absorbance was measured at 517 nm using UV spectrophotometer. Ascorbic acid was used as positive control.
Percent scavenging activity was calculated as; A0−A1/A0×100
Where A0 is absorbance of control and A1 is the absorbance of the compound sample. Each experiment was performed in triplicate and inhibition curves were constructed using the GraphPad prism program (GraphPAD, San Diego, California, USA) and median inhibitory concentrations (IC50) values were determined.
(§1) Radical scavenging ability was calculated by a linear regression analysis among the inhibition percentages against the compounds concentrations via the Excel program.

[2] = ABTS free radicals scavenging assay; details: for Percent inhibition (mean ± SEM), ABTS free radicals scavenging: n = 3; for IC50 (ABTS free radicals scavenging): from 250-1000 μg/mL tested concentrations
Protocol: ABTS (2, 2-azinobis [3-ethylbenzthiazoline]-6-sulfonic acid) free radicals were also used to confirm the antioxidant activity of the synthesized compounds. The activity is based on the capacity of antioxidants to scavenge ABTS^+ radical cation causing a reduction in absorbance at 734 nm. ABTS (7 mM) and […] (2.45 mM) solutions were prepared and mixed. The resultant mixture was maintained at room temperature in dark for 12–16 h to get dark color solution containing ABTS^+ radical cations. At the time of activity, ABTS^+ radical cation solution was diluted with Phosphate buffer (0.01 M) pH 7.4 to adjust an absorbance value of 0.70 at 734 nm. Radical scavenging capability of the compounds was analyzed by mixing 300 μl of compound with 3.0 mL of ABTS solution in cuvette. The reduction in absorbance was measured spectrophotometrically after one minute of mixing the solutions and continued for six min. Ascorbic acid was used as a positive control. The assay was repeated three times and percent inhibition was calculated with formula; %scavengingeffect=Controlabsorbance‐Sampleabsorbance/Controlabsorbance×100
as §1

[3] = molecular target: T1, acetylcholinesterase (AChE) from Electric eel (Electrophorus electricus, UniProt O42275); format: biochemical; details: n = 3
T1 construct: AChE Electric eel (type-VI-S, CAS 9000-81-1 Sigma-Aldrich GmbH USA); purchased Sigma-Aldrich type-VI-S (CAS 9000-81-1; catalogue number not given)
Protocol: (§2) The assay is based on the acetylcholinesterase promoted hydrolysis of acetylthiocholine iodide and butyrylthiocholine iodide by butyrylcholinesterase. The hydrolysis processes give 5-thio-2-nitrobenzoate anion followed by complexation with DTNB (which give yellow color) and is detected by the spectrophotometer.
(§3) Compounds (each separately) were dissolved in phosphate buffer (0.1 M) in concentrations ranging from 250–1000 μg/mL. […] Finally, potassium hydroxide was used to adjust pH. AChE (518 U/mg solid) and BChE (7–16 U/mg) were diluted in freshly prepared buffer pH 8.0 until final concentrations of 0.03 U/mL and 0.01 U/mL were obtained. Solutions of DTNB (0.0002273 M), ATchI and BTchI (0.0005 M) were prepared in distilled water and were kept in Eppendorf caps in the refrigerator.
(§4) For each assay, an enzyme solution of 5 μl was added to the cuvette followed by addition of compound (205 μl), and finally DTNB reagent (5 μl). The solution mixture was maintained at 30 °C for 15 min using water bath with subsequent addition of substrate solution (5 μl). A double beam spectrophotometer was used to measure the absorbance at 412 nm. […] The absorbances along with the reaction time were taken for four minutes at 30 °C and were repeated in triplicate. Finally, the enzyme activity and enzyme inhibition by control and tested samples were calculated from the rate of absorption with change in time (V = ΔAbs /Δt) as follow;
Where Vmax is enzyme activity in the absence of inhibitor drug. […]

[4] = molecular target: T2, butyrylcholinesterase (BChE) from equine serum (Equus caballus, UniProt P81908); experiment: Butyrylcholinesterase inhibition assay (Ellman's spectrophotometric assay); format: biochemical; details: for IC50: from 250-1000 μg/mL tested concentrations; for inhibition at 250 µg/mL / inhibition at 500 µg/mL / inhibition at 1000 µg/mL: read-out: Percent AChEI (mean ± SEM) (Table 3, butyrylcholinesterase inhibition)
T2 construct: BChE equine serum Lyophilized (CAS 9001-08-5 Sigma-Aldrich GmbH USA); purchased Sigma-Aldrich CAS 9001-08-5 (catalogue number not given); host or cells: equine serum
Protocol: as §2, §3, §4
Where Vmax is enzyme activity in the absence of inhibitor drug.
as §1

T1 sequence (O42275 24-633): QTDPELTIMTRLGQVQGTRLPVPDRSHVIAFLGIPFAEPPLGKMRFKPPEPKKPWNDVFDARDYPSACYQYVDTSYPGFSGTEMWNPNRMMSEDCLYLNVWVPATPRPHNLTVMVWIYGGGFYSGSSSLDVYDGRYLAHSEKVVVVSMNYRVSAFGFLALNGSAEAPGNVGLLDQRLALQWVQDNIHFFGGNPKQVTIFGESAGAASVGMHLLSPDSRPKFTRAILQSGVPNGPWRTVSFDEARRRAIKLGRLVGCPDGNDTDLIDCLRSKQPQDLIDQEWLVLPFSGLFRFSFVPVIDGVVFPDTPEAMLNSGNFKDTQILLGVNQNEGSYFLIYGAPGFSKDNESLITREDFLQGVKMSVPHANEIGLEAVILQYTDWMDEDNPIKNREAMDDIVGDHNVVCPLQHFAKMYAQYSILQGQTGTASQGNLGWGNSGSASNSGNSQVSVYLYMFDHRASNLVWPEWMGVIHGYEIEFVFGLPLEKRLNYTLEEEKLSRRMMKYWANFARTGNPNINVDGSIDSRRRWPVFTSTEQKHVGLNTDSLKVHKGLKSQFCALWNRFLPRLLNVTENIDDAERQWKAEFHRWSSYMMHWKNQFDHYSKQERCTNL
T2 sequence (P81908 whole entry): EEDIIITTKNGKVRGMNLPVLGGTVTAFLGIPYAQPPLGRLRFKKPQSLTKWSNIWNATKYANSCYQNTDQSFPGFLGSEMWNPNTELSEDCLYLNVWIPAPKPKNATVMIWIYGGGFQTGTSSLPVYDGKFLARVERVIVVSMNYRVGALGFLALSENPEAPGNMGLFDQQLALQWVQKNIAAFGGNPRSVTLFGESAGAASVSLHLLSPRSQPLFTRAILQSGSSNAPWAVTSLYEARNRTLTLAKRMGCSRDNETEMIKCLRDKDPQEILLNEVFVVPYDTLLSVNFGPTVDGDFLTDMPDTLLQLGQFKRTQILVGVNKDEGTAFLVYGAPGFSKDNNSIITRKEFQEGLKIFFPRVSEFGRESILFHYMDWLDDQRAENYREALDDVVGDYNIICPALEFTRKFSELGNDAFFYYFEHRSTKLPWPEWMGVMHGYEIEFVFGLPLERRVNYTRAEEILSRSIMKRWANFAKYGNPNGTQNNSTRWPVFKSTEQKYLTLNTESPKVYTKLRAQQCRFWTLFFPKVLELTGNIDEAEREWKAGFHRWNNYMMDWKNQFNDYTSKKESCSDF

Compound	Percent inhibition (mean ± SEM), DPPH free radicals scavenging ([1]; conc. 250 μg/mL)	Percent inhibition (mean ± SEM), DPPH free radicals scavenging ([1]; conc. 500 μg/mL)	Percent inhibition (mean ± SEM), DPPH free radicals scavenging ([1]; conc. 1000 μg/mL)	IC50 (DPPH free radicals scavenging) [1]	Percent inhibition (mean ± SEM), ABTS free radicals scavenging ([2]; conc. 250 μg/mL)	Percent inhibition (mean ± SEM), ABTS free radicals scavenging ([2]; conc. 500 μg/mL)	Percent inhibition (mean ± SEM), ABTS free radicals scavenging ([2]; conc. 1000 μg/mL)	IC50 (ABTS free radicals scavenging) [2]	Percent AChEI (mean ± SEM) ([3]; concentration 250 μg/mL)	Percent AChEI (mean ± SEM) ([3]; concentration 500 μg/mL)	Percent AChEI (mean ± SEM) ([3]; concentration 1000 μg/mL)	IC50 [4]	inhibition at 250 µg/mL [4]	inhibition at 500 µg/mL [4]	inhibition at 1000 µg/mL [4]
O=C1O[C@H]([C@@H](O)CO)C(O)=C1O [Ascorbic acid, reference compound]	78.61 ± 0.23%	81.71 ± 0.54%	93.56 ± 0.37%	20 mg/L (≈ 114 µM)	84.66 ± 0.88%	87.23 ± 0.47%	91.62 ± 0.62%	<0.1 mg/L	–	–	–	–	–	–	–
CCOC(=O)C1(C2CC(=O)N(c3ccccc3)C2=O)CCCC1=O (centres unmarked) [Compound 1, Ethyl 2-oxo-1-(2,5-dioxo-1-phenylpyrrolidin-3-yl)cyclopentanecarboxylate]	35.60 ± 0.75 %	52.49 ± 0.78 %	72.41 ± 0.45 %	440 mg/L (≈ 1340 µM)	65.00 ± 0.57 %	77.45 ± 0.54 %	88.51 ± 0.62 %	90 mg/L (≈ 273 µM)	93.25 ± 0.25 ^ns %	94.25 ± 0.05 ^ns %	98.00 ± 0.70% and 98.00 ± 0.70^ns %	128 µM	72.5 ± 0.02%	82.5 ± 0.18%	90.25 ± 0.02%
CCOC(=O)C1(C2CC(=O)N(Cc3ccccc3)C2=O)CCCC1=O (centres unmarked) [Compound 2, Ethyl 1-(1-benzyl-2,5-dioxopyrrolidin-3-yl)-2-oxocyclopentanecarboxylate]	33.61 ± 0.66 %	52.48 ± 0.56 %	70.32 ± 0.61 %	460 mg/L (≈ 1340 µM)	59.66 ± 0.66 %	72.45 ± 0.65 %	86.49 ± 0.49 %	141 mg/L (≈ 411 µM)	91.00 ± 0.52% and 91.00 ± 0.52 ^ns %	91.75 ± 0.04% and 91.75 ± 0.04 ^ns %	98.75 ± 0.25% and 98.75% and 98.75 ± 0.25 ^ns %	< 0.291 µM	84.25 ± 0.12%	86.75 ± 0.22%	90 ± 0.1%
CCOC(=O)C1(C2CC(=O)N(c3ccccc3)C2=O)CCCCC1=O (centres unmarked) [Compound 3, Ethyl 2-oxo-1-(2,5-dioxo-1-phenylpyrrolidin-3-yl)cyclohexanecarboxylate]	30.59 ± 0.67 %	54.64 ± 0.70 %	60.40 ± 0.49 %	535 mg/L (≈ 1560 µM)	64.67 ± 0.89 %	71.25 ± 0.48 %	80.41 ± 0.73 %	73 mg/L (≈ 213 µM)	95.25 ± 0.20 ^ns %	96.00 ± 0.80 ^ns %	98.50 ± 0.09% and 98.50 ± 0.09 ^ns %	20.4 µM	78.25 ± 0.04%	89 ± 0.3%	89.25 ± 0.5%
CCOC(=O)C1(C2CC(=O)N(Cc3ccccc3)C2=O)CCCCC1=O (centres unmarked) [Compound 4, 1Ethyl 1-(1-benzyl-2,5-dioxopyrrolidin-3-yl)-2-oxocyclohexanecarboxylate]	20.34 ± 0.58 %	24.75 ± 0.64 %	45.80 ± 0.61 %	>1000 mg/L	54.00 ± 1.15 %	67.33 ± 0.77 %	73.59 ± 0.43 %	173 mg/L (≈ 484 µM)	93.25 ± 0.15 ^ns %	96.00 ± 0.55 ^ns %	97.25 ± 0.07% and 97.25 ± 0.07 ^ns %	5.6 µM	87.5 ± 0.04%	88.5 ± 0.5%	98.5 ± 0.18%
COc1ccc2c3c1O[C@H]1C[C@@H](O)C=C[C@@]31CCN(C)C2 [Galanthamine, reference compound]	–	–	–	–	–	–	–	–	–	–	–	–	71.72 ± 0.51%	85.47 ± 0.59%	94.5 ± 0.71%
